Assay results: ChEMBL document CHEMBL1275370, “The binding of β-d-glucopyranosyl-thiosemicarbazone derivatives to glycogen phosphorylase: A new class of inhibitors” (Bioorg Med Chem, 2010)

Molecular target: T1, Glycogen phosphorylase, muscle form (Oryctolagus cuniculus, UniProt P00489)
T1 sequence (P00489 whole entry): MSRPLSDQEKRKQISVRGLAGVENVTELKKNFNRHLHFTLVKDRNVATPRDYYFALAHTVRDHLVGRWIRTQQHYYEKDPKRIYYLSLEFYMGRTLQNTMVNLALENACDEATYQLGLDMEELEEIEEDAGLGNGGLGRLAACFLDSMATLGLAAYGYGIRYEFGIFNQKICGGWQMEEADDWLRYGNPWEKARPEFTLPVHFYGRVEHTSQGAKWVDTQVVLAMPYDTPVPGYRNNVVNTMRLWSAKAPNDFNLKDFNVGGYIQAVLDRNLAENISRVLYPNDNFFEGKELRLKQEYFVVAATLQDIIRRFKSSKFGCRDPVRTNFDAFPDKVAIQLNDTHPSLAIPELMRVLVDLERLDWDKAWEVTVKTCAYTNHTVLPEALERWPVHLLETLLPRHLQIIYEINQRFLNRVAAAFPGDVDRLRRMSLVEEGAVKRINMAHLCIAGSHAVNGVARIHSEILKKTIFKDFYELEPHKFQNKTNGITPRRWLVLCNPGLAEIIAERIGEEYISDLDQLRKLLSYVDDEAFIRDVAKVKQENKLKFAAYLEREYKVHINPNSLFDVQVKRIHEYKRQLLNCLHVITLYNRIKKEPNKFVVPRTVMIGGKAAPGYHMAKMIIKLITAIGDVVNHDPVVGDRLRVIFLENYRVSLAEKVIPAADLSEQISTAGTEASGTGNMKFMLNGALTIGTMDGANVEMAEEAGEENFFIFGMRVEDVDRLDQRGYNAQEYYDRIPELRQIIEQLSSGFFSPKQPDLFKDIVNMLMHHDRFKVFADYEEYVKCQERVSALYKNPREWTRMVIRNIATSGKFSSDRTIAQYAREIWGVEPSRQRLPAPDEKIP
Description: Inhibition of rabbit skeletal muscle glycogen phosphorylase b

Compound	IC50 [µM]
CC[C@H]1O[C@@H](NC(=S)N/N=C/c2ccc([N+](=O)[O-])cc2)[C@H](O)[C@@H](O)[C@@H]1O	25.7
CC[C@H]1O[C@@H](NC(=S)N/N=C/c2ccc(Br)cc2)[C@H](O)[C@@H](O)[C@@H]1O	93.2
CC[C@H]1O[C@@H](NC(=S)N/N=C/c2ccc(O)cc2)[C@H](O)[C@@H](O)[C@@H]1O	340
CC[C@H]1O[C@@H](NC(=S)N/N=C/c2ccc(OC)cc2)[C@H](O)[C@@H](O)[C@@H]1O	406
CC[C@H]1O[C@@H](NC(=S)N/N=C/c2ccc(C)cc2)[C@H](O)[C@@H](O)[C@@H]1O	192
CC[C@H]1O[C@@H](NC(=S)N/N=C/c2ccc(C(F)(F)F)cc2)[C@H](O)[C@@H](O)[C@@H]1O	524
CC[C@H]1O[C@@H](NC(=S)N/N=C/c2ccncc2)[C@H](O)[C@@H](O)[C@@H]1O	200
CC[C@H]1O[C@@H](NC(=S)N/N=C/c2cccc(Cl)c2)[C@H](O)[C@@H](O)[C@@H]1O	23.2
CC[C@H]1O[C@@H](NC(=S)N/N=C/c2cccc(O)c2)[C@H](O)[C@@H](O)[C@@H]1O	180
CC[C@H]1O[C@@H](NC(=S)N/N=C/c2ccccc2[N+](=O)[O-])[C@H](O)[C@@H](O)[C@@H]1O	484
CC[C@H]1O[C@@H](NC(=S)N/N=C/c2ccccc2Cl)[C@H](O)[C@@H](O)[C@@H]1O	370
CC[C@H]1O[C@@H](NC(=S)N/N=C/c2ccccc2O)[C@H](O)[C@@H](O)[C@@H]1O	26.6
